In paper PMC13110364, “Design, Synthesis, and Biological Evaluation of Novel Triazine‐Based Dual Histone Deacetylase/phosphatidylinositol 3‐kinase Inhibitors for Breast Cancer Therapy” (Chemmedchem, 2026):
Values joined by “and” are separate entries in the source; they are usually repeats but may differ in a detail not shown here. Equal values may be shown once.

Assays:
[1] = test system: JIMT1 breast cancer cells; assay: MTS cell viability assay, JIMT1; format: cell-based; details: Homo sapiens, JIMT-1, 72 h treatment
Procedure: (§1) The cell viability effects of compounds 5a–5f were assessed in LY2, JIMT1, and MDA‐MB‐231 breast cancer cell lines using the 3‐(4,5‐dimethylthiazol‐2‐yl)‐5‐(3‐carboxymethoxyphenyl)‐2‐(4‐sulfophenyl)‐2H‐tetrazolium (MTS) assay. The MTS assay measures metabolic viability and serves as a first‐pass screen.
(§2) JIMT‐1 (DSMZ ACC 589) and MDA‐MB‐231 (ATCC HTB‐26) breast cancer cell lines were maintained in Dulbecco's Modified Eagle Medium (DMEM) High Glucose with L‐glutamine (D5796, Sigma) supplemented with 10% fetal calf serum. MCF7‐derivative LY2 breast cancer cells were previously described (REF: PMID: 33420368). LY2 cells were cultured in phenol red‐free MEM (PRF‐MEM; 51 200‐046, Gibco) supplemented with 10% charcoal dextran‐stripped fetal calf serum (CDS‐FCS; F6765, Merck), 2 mmol/L L‐glutamine (G7513, Merck), and 10^−8 mol/L 4‐hydroxytamoxifen (4‐OHT; H7904, Merck). All cell lines were maintained at 37°C in a humidified incubator with 5% CO2 and regularly authenticated and tested for mycoplasma.
(§3) Cell viability was evaluated in response to increasing concentrations of 5a‐5f (0.3, 1, 3, 10, and 30 μM) or vehicle control (0.1% DMSO). LY2, JIMT1, and MDA‐MB‐231 cells were seeded at a density of 2,500 cells per well in 96‐well plates with a total volume of 100 μL per well. Prior to treatment, cells were serum‐deprived for 24 h. Following serum depletion, cells were treated in complete growth medium for 72 h. Cell viability was assessed using the MTS assay (G1111, Promega) according to the manufacturer's instructions. Absorbance was measured at 495 nm using a BioTek Synergy HTX Multi‐Mode Microplate Reader (Agilent). Results were normalized to the vehicle control (DMSO), and the half‐maximal inhibitory concentration (IC50) of the inhibitors was determined by nonlinear regression (curve fit) using a four‐parameter variable slope model.

[2] = test system: LY2 breast cancer cells; assay: MTS cell viability assay, LY2; format: cell-based; details: 72 h treatment
Procedure: as §1, §2, §3

[3] = test system: MCF‐10A cells; assay: Cell viability in nontransformed cell line MCF-10A; format: cell-based; details: Homo sapiens
Source text: Thus, further optimization will be required to improve the therapeutic index.
FIGURE 5 Dose‐dependent effects of compound treatment (5b and 5f) on nontransformed breast cell viability across MCF‐10A.

[4] = target: HDAC6 (Homo sapiens, UniProt Q9UBN7); assay: HDAC6 inhibition, 10-dose IC50 (Reaction Biology Corporation); format: biochemical; details: 10‐dose IC50 mode, threefold serial dilutions starting at 1 μM
Sequence of HDAC6 (Q9UBN7 whole entry): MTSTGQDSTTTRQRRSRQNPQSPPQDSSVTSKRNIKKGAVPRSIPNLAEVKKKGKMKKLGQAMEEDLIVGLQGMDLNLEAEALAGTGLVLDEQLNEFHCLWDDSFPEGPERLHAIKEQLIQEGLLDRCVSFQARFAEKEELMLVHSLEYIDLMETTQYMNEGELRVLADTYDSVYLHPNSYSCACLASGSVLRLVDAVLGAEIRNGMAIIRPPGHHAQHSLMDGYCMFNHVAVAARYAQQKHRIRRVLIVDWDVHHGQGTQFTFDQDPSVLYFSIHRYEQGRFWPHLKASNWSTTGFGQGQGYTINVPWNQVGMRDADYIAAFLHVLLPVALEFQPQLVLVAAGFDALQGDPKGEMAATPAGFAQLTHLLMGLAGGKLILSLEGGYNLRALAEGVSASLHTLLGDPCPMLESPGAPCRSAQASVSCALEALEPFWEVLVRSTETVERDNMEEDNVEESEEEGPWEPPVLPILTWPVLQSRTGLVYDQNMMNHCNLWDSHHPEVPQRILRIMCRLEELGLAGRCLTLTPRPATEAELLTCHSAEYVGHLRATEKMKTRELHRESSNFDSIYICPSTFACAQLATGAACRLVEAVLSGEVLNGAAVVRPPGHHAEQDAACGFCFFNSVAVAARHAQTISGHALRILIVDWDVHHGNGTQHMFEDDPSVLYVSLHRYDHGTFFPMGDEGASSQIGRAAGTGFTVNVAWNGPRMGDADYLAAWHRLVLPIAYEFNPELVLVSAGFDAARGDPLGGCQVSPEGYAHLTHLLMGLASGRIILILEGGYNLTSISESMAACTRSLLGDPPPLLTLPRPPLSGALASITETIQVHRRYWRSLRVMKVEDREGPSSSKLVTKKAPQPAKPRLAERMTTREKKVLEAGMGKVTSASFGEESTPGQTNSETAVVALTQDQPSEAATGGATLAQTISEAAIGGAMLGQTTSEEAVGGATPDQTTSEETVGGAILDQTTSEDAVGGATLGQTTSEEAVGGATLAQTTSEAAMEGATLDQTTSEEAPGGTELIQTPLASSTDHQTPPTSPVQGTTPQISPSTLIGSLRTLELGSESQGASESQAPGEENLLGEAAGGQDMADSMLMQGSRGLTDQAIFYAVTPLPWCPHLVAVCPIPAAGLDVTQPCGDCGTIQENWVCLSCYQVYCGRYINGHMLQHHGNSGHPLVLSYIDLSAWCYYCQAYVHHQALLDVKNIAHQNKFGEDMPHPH

[5] = target: HDAC8 (Homo sapiens, UniProt Q9BY41); assay: Selectivity profile, single dose 0.5 µM, HDAC8; format: biochemical; details: remaining enzyme activity; single‐dose duplicate mode at 0.5 μM; read-out: Enzyme % activity (relative to DMSO controls) at 0.5 µM, HDAC8
Sequence of HDAC8 (Q9BY41 whole entry, canonical isoform): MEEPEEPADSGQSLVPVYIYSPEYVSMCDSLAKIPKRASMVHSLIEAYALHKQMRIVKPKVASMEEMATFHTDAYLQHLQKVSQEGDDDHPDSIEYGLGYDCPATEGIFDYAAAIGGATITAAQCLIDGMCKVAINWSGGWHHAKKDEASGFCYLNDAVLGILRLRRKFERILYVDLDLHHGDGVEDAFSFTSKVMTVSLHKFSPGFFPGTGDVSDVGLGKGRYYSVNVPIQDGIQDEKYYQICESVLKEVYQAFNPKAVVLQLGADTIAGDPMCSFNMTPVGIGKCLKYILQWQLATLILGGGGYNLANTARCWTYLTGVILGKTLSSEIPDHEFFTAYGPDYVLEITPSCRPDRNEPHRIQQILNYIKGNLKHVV
Procedure: (§4) The inhibitory profiles of 5b and 5f were evaluated against selected HDAC isoforms (HDAC1, HDAC3, HDAC4, HDAC8, and HDAC10) and PI3K isoforms (PI3Kδ, PI3Kγ, and PI3Kβ) at a fixed concentration of 0.5 µM (Table 3). […] While we explored the phenyl ring in the linker region to achieve selectivity for the HDAC6 isoform, we still observed HDAC class I inhibition. […] It is important to highlight that PI3Kδ is mainly expressed in hematopoietic system and plays roles in leukocyte signaling, T‐cell activation, and immune cell trafficking. FDA‐approved drug idelalisib is a selective PI3Kδ inhibitor in B‐cell malignancies; however, this drug is also related to disruption of the immune system, which can lead to immune manifestations, such as infections. In addition, while isoform‐selective PI3K inhibitors are well tolerated, pan‐inhibition of PI3K is less expected that compensatory mechanisms by the action of other PI3Ks can take place. Thus, a more balanced profile of PI3K inhibition can lead to an overall lack of toxicity of PI3K inhibitors.

[6] = target: PI3Kβ (Homo sapiens, UniProt P42338); assay: Selectivity profile, single dose 0.5 µM, PI3Kβ; format: biochemical; details: remaining enzyme activity; single‐dose duplicate mode at 0.5 μM; read-out: Enzyme % activity (relative to DMSO controls) at 0.5 µM, PI3Kβ
Sequence of PI3Kβ (P42338 whole entry): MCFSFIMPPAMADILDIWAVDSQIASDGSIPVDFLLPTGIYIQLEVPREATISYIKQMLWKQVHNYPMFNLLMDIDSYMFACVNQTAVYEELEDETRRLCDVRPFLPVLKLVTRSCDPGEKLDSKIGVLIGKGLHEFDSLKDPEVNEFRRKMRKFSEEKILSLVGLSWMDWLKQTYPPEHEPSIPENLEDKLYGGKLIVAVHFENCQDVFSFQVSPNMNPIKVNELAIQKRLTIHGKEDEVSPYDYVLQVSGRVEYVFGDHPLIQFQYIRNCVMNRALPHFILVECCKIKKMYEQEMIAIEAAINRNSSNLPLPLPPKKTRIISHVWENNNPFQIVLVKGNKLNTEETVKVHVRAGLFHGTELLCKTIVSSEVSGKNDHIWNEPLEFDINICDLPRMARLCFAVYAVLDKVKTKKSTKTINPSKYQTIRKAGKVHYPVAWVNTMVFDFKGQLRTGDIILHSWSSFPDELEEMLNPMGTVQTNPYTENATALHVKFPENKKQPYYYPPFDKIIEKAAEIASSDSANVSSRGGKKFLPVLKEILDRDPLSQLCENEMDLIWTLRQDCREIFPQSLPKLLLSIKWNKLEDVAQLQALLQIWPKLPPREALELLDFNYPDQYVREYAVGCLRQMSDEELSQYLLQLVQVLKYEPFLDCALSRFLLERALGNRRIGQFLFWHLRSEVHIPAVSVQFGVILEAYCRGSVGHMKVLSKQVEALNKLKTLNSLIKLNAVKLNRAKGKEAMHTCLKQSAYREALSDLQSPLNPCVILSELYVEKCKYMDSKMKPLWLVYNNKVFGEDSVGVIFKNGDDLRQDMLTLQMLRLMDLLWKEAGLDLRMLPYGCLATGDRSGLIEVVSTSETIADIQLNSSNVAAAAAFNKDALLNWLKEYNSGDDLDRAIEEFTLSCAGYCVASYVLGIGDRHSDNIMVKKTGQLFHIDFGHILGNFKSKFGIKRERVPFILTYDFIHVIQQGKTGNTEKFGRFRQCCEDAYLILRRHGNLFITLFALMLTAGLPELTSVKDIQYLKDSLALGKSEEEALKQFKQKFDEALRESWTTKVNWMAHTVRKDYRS
Sequence of PI3Kβ (P27986 whole entry partner): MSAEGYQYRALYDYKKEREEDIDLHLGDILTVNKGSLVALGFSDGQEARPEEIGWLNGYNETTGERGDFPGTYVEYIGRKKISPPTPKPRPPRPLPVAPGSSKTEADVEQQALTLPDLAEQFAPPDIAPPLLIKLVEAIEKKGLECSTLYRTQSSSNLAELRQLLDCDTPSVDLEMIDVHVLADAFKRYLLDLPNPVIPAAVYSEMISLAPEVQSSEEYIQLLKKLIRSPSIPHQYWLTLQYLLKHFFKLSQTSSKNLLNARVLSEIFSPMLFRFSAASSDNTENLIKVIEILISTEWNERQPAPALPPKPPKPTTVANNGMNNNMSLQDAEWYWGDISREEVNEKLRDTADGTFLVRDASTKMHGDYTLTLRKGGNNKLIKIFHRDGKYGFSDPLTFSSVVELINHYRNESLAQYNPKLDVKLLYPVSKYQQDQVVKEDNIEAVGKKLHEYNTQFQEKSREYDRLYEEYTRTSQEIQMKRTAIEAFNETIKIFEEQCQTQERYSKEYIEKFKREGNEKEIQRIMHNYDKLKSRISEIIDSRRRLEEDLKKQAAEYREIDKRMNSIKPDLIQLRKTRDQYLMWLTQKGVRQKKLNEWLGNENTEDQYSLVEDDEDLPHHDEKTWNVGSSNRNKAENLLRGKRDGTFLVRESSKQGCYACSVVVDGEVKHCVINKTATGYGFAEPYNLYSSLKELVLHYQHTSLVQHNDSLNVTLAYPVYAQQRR
Procedure: as §4

IC50 [1] [µM] | IC50 [2] [µM] | IC50 [4] | remaining activity at 0.5 µM [5] [%] | remaining activity at 0.5 µM [6] [%] | SMILES | IC50 [3] [nM]
3.5 ± 0.95 | 8.81 ± 0.59 | 6.02 nM and 6 nM | 46.9 | 86.9 | COc1ccc(-c2nc(NCc3ccc(C(=O)NO)cc3)nc(N3CCOCC3)n2)cn1 [Compound 5f, N‐Hydroxy‐4‐(((4‐(6‐Methoxypyridin‐3‐yl)‐6‐Morpholino‐1,3,5‐Triazin‐2‐yl)Amino)Methyl)Benzamide] | < 1000
5.72 ± 0.76 | 4.68 ± 1.34 | 2.33 nM and 2.3 nM | 46.3 | 40.1 | O=C(NO)c1ccc(CNc2nc(-c3cccc(O)c3)nc(N3CCOCC3)n2)cc1 [Compound 5b, N‐Hydroxy‐4‐(((4‐(3‐Hydroxyphenyl)‐6‐Morpholino‐1,3,5‐Triazin‐2‐yl)Amino)Methyl)Benzamide] | < 1000
